# Assay results from patent US20240287070A1, “FUSED HETEROCYCLIC DERIVATIVES” (Janssen Sciences Ireland Unlimited Company, priority 2021, published 2024).
# Experiments:
# HepG2 or HepG2.117 cells = assay: Cytotoxicity, ATPlite Luminescence Assay; format: cell-based, human; settings: 3-days incubation unless marked with *
# Summary of the method: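 HepG2/HepG2.117; compound exposure 3–4 d; viability readout = ATPlite luminescence.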
# [1] = system: HBV (HepG2.117 cell line, inducibly HBV producing); assay: Anti-HBV activity, intracellular HBV DNA by real-time PCR in HepG2.117 cell line; format: cell-based, hepatitis B virus; settings: HepG2.117 cells, 3 days of treatment
# Summary of the method: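 Antiviral effect is expressed through intracellular HBV DNA levels, determined by real-time PCR with a virus-specific probe. These levels were measured after 3 days of treatment with compound dilutions, in HepG2.117 cells induced to replicate HBV.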
# [2] = Human liver microsome stability; format: in vitro ADME; settings: 1 μM compound, NADPH 1 mM, 37° C., 0-60 min; for HLM Metabolism t1/2: pooled human liver microsomes 0.5 mg/mL
# Summary of the method: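 Half-life came from elimination rate constant (negative slope of ln compound/internal standard area ratio over time), measured by cassette LC-MS after acetonitrile quench. Human liver microsome reactions, one replicate per compound, were initiated with NADPH (1 mM final) and sampled at six points up to 60 min.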
SMILES,CC50 (HepG2 or HepG2.117 cells) [µM],EC50 [1] [µM],HLM Metabolism t1/2 [2] [h],"half-life at 1 μM ([2]; human, pooled human liver microsomes, pH 7.4, pooled human liver microsomes 0.5 mg/mL, read-out: HLM Metabolism t1/2) [h]"
"Cc1nnn(-c2ccc(C(C)N3C[C@@H](C)n4nc5c(c4C3=O)CN(C(=O)c3ccc(Cl)c(Cl)c3)[C@H](C)C5)cn2)n1 (single isomer, unassigned) [Compound 26B, (3R,7R)-2-(3,4-dichlorobenzoyl)-3,7-dimethyl-9-((S*)-1-(6-(5-methyl-2H-tetrazol-2-yl)pyridin-3-yl)ethyl)-1,2,3,4,8,9-hexahydropyrido[4′,3′:3,4]pyrazolo[1,5-a]pyrazin-10(7H)-one]",> 50,0.02,1.13,–
"CC(c1cnc(C2CC2)cn1)N1C[C@@H](C)n2nc3c(c2C1=O)CN(C(=O)c1ccc(Cl)c(Cl)c1)[C@H](C)C3 (single isomer, unassigned) [Compound 3B, (3R,7R)-9-((S*)-1-(5-cyclopropylpyrazin-2-yl)ethyl)-2-(3,4-dichlorobenzoyl)-3,7-dimethyl-1,2,3,4,8,9-hexahydropyrido[4′,3′:3,4]pyrazolo[1,5-a]pyrazin-10(7H)-one]",16.4,0.023,2.22,–
"CC(c1ccnc(Cl)c1)N1C[C@@H](C)n2nc3c(c2C1=O)CN(C(=O)c1ccc(Cl)c(Cl)c1)[C@H](C)C3 (single isomer, unassigned) [Compound 31B, (3R,7R)-9-((S*)-1-(2-chloropyridin-4-yl)ethyl)-2-(3,4-dichlorobenzoyl)-3,7-dimethyl-1,2,3,4,8,9-hexahydropyrido[4′,3′:3,4]pyrazolo[1,5-a]pyrazin-10(7H)-one]",22.7,0.019,2.12,–
"CC(c1cnc(C(C)(C)O)nc1)N1C[C@@H](C)n2nc3c(c2C1=O)CN(C(=O)c1ccc(Cl)c(Cl)c1)[C@H](C)C3 (single isomer, unassigned) [Compound 36B, (3R,7R)-2-(3,4-Dichlorobenzoyl)-9-((S*)-1-(2-(2-hydroxypropan-2-yl)pyrimidin-5-yl)ethyl)-3,7-dimethyl-1,2,3,4,8,9-hexahydropyrido[4′,3′:3,4]pyrazolo[1,5-a]pyrazin-10(7H)-one]",> 50,0.029,>3,–
"CC(c1ccc(-n2cncn2)cc1)N1C[C@@H](C)n2nc3c(c2C1=O)CN(C(=O)c1ccc(Cl)c(C#N)c1)[C@H](C)C3 (single isomer, unassigned) [Compound 11B, 5-((3R,7R)-9-((S*)-1-(4-(1H-1,2,4-triazol-1-yl)phenyl)ethyl)-3,7-dimethyl-10-oxo-1,2,3,4,7,8,9,10-octahydropyrido[4′,3′:3,4]pyrazolo[1,5-a]pyrazine-2-carbonyl)-2-chlorobenzonitrile]",> 50,0.032,>3,–
"CC(c1cc(F)c(=O)n(C)c1)N1C[C@@H](C)n2nc3c(c2C1=O)CN(C(=O)c1ccc(Cl)c(Cl)c1)[C@H](C)C3 (relative stereo) [Compound 45A, (3R,7R)-2-(3,4-dichlorobenzoyl)-9-((R*)-1-(5-fluoro-1-methyl-6-oxo-,6-dihydropyridin-3-yl)ethyl)-3,7-dimethyl-1,2,3,4,8,9-hexahydropyrido[4′,3′:3,4]pyrazolo [1,5-a]pyrazin-10(7H)-one]",> 50,0.57,>3,–
"CNC(=O)c1ccc(C(C)N2C[C@@H](C)n3nc4c(c3C2=O)CN(C(=O)c2ccc(Cl)c(Cl)c2)[C@H](C)C4)cn1 (single isomer, unassigned) [Compound 24B, 5-((S*)-1-((3R,7R)-2-(3,4-dichlorobenzoyl)-3,7-dimethyl-10-oxo-1,3,4,7,8,10-hexahydropyrido[4′,3′:3,4]pyrazolo[1,5-a]pyrazin-9(2H)-yl)ethyl)-N-methylpicolinamide]",> 50,0.02,>3,–
"CC(c1cc(F)c(=O)n(C2CC2)c1)N1C[C@@H](C)n2nc3c(c2C1=O)CN(C(=O)c1ccc(Cl)c(Cl)c1)[C@H](C)C3 (single isomer, unassigned) [Compound 46B, (3R,7R)-9-((S*)-1-(1-cyclopropyl-5-fluoro-6-oxo-1,6-dihydropyridin-3-yl)ethyl)-2-(3,4-dichlorobenzoyl)-3,7-dimethyl-1,2,3,4,8,9-hexahydropyrido[4′,3′:3,4]pyrazolo[1,5-a]pyrazin-10(7H)-one]",> 50,0.031,>3,–
"CNS(=O)(=O)c1ccc(C(C)N2C[C@@H](C)n3nc4c(c3C2=O)CN(C(=O)c2ccc(Cl)c(Cl)c2)[C@H](C)C4)cc1 (single isomer, unassigned) [Compound 17B, 4-((S*)-1-((3R,7R)-2-(3,4-dichlorobenzoyl)-3,7-dimethyl-10-oxo-1,3,4,7,8,10-hexahydropyrido[4′,3′:3,4]pyrazolo[1,5-a]pyrazin-9(2H)-yl)ethyl)-N-methylbenzenesulfonamide]",> 50,0.026,1.6,–
"CC(c1ccnc(OC(F)F)c1)N1C[C@@H](C)n2nc3c(c2C1=O)CN(C(=O)c1ccc(Cl)c(C(F)(F)F)c1)[C@H](C)C3 (single isomer, unassigned) [Compound 50B, (3R,7R)-2-(4-chloro-3-(trifluoromethyl)benzoyl)-9-((S*)-1-(2-(difluoromethoxy)pyridin-4-yl)ethyl)-3,7-dimethyl-1,2,3,4,8,9-hexahydropyrido[4′,3′:3,4]pyrazolo[1,5-a]pyrazin-10(7H)-one]",10.2,0.024,>3,–
"CC(c1ccc(-n2cncn2)nc1)N1C[C@@H](C)n2nc3c(c2C1=O)CN(C(=O)c1ccc(Cl)c(Cl)c1)[C@H](C)C3 (single isomer, unassigned) [Compound 5B, (3R,7R)-9-((S*)-1-(6-(1H-1,2,4-triazol-1-yl)pyridin-3-yl)ethyl)-2-(3,4-dichlorobenzoyl)-3,7-dimethyl-1,2,3,4,8,9-hexahydropyrido[4′,3′:3,4]pyrazolo[1,5-a]pyrazin-10(7H)-one]",28.4,0.017,2.08,–
"CC(C)Oc1cc(C(C)N2C[C@@H](C)n3nc4c(c3C2=O)CN(C(=O)c2ccc(Cl)c(C(F)(F)F)c2)[C@H](C)C4)ccn1 (single isomer, unassigned) [Compound 48B, (3R,7R)-2-(4-chloro-3-(trifluoromethyl)benzoyl)-9-((S*)-1-(2-isopropoxypyridin-4-yl)ethyl)-3,7-dimethyl-1,2,3,4,8,9-hexahydropyrido[4′,3′:3,4]pyrazolo[1,5-a]pyrazin-10(7H)-one]",11.5,0.028,1.66,–
"CC(c1cnc(C(F)(F)F)cn1)N1C[C@@H](C)n2nc3c(c2C1=O)CN(C(=O)c1ccc(Cl)c(Cl)c1)[C@H](C)C3 (single isomer, unassigned) [Compound 7A, (3R,7R)-2-(3,4-dichlorobenzoyl)-3,7-dimethyl-9-((R*)-1-(5-(trifluoromethyl)pyrazin-2-yl)ethyl)-1,2,3,4,8,9-hexahydropyrido[4′,3′:3,4]pyrazolo[1,5-a]pyrazin-10(7H)-one]",44.8,0.52,–,> 3
